2 substances from US6258790A, “Antisense modulation of integrin α4 expression” (Isis Pharmaceuticals, Inc., priority 1999, dated 2001) can be followed below.

Data set [1] deals with Mouse collagen-induced arthritis (CIA). The experiment in a line: Mouse collagen-induced arthritis (CIA) model for rheumatoid arthritis. It counts as in vivo, mouse (DBA/1LacJ). An excerpt: A model for human rheumatoid arthritis has been developed wherein mice are immunized with bovine type II collagen. Anderson et al., J. Immunol. 1991 147, 1189-1193, citing Trentham et al., J. Exp. Med 1977, 146, 857. Swelling and inflammation of the joints follows in approximately 3 weeks, with joint distortion and ankylosis typical of rheumatoid arthritis. This model has been used to study the effects of the antisense oligonucleotide 17044, targeted to mouse integrin α4, on arthritis in mice.
DBA/1LacJ mice were obtained from Jackson Laboratory, Bar Harbor, Me. Female mice aged 6 to 8 weeks were used and assigned to groups, ten mice per group. On day 0 mice were immunized at the base of the tail with 100 ug of bovine type II collagen which was emulsified in Complete Freund's Adjuvant (CFA). On day 7, a second booster dose of collagen was administered by the same route. On day 14 the mice were injected subcutaneously with 100 ug of lipopolysaccharide (LPS). Weights were recorded weekly. Mice were inspected daily for the onset of CIA, which is characterized by erythema and edema. Upon the onset of the disease, paw widths and rear ankle widths of affected and unaffected joints were measured three times a week using a constant tension caliper. In addition, limbs were clinically evaluated and graded 0-4, where 0=normal; 1=one digit swollen; 2=inflammation present in more than one digit; 3=joint distortion with or without inflammation; and 4=ankylosis, detected by joint manipulation. The progression of all measurements was recorded to day 50. At the end of the observation period for each mouse, all paws were removed and examined histologically.
The oligonucleotide, the positive control drug (cyclophosphamide, 5 mg/kg), and the vehicle were administered daily to each mouse intraperitoneally (IP) starting on day -3 and continuing for the duration of the study. Each animal received 10 mg/kg as a bolus daily dose.
In a preliminary study, a single 10 mg/kg daily dose of […] was administered from the time of disease induction to the conclusion of the study 50 days later. Arthritis incidence was reduced from 70 to 30% in the ISIS 17044-treated group.

In data set [2] the test system is leukocyte trafficking into the central nervous system of EAE mice. The data set can be described thus: Reduction of leukocyte trafficking into the central nervous system of EAE mice (immunostaining of sections). It counts as in vivo, mouse (CSJLF1). The method, then:
The pieces were embedded in O.C.T. tissue freezing medium (Ted Pella Inc., Redding, Calif.) on dry ice and methylbutane. Four-micron frozen sections were cut and air dried overnight. The sections were fixed for three minutes in ice-cold acetone and then placed on a Dako Autostainer (Dako Corporation, Carpinteria, Calif.) and treated in the following steps: 5 minutes in 0.03% H2 O2, 5 minutes in 5% donkey serum diluted in PBS, 45 minutes in appropriately diluted primary antibody, 30 minutes in horseradish peroxidase-labeled donkey anti-rat secondary antibody (Jackson Laboratory, Bar Harbor, Me.). Sections were rinsed between treatments with PBS. All the antibodies used were rat anti-mouse from PharMingen (San Diego, Calif.), except BM-8, which was from Bachem Bioscience Inc. (King of Prussia, Pa.). The immunostaining was developed with DAB (Dako Corporation) and counterstained with hematoxylin.

Data set [3] has as its system Jurkat T-cell adherence to HUVEC. The experiment in a line: Adherence of Jurkat T-cells to HUVEC (flow cytometry). Type of data set: cell-based, human. The method, then:
A similar adherence assay was performed using Jurkat T-cells instead of melanoma cells, again detecting adherence to HUVEC. Because Jurkat cells are smaller and less complex, they can be separated from HUVEC by gating on the basis of differences in forward light scatter and side scatter. For 5000 HUVEC events, adherent Jurkat cells were quantitated. At oligonucleotide concentrations of 1, 3, 10, and 30 μM ISIS 107248, adherence of Jurkat cells to HUVEC was 0, 12%, 32% and 63%, respectively.

The test system of data set [4] is A375 melanoma cell adherence to HUVEC. The data set can be described thus: Adherence of A375 melanoma cells to HUVEC (flow cytometry). Type of data set: cell-based, human. The conditions noted are these: 10 μM; compared to TNF treated control. The method, then:
Human umbilical vein endothelial cells (HUVEC) (Clonetics, San Diego Calif.) were cultured in EGM-UV medium (Clonetics)and treated with TNFA for 20 hours to induce VCAM expression. A375 melanoma cells were electroporated with ISIS 107248 as described above. Using antibody to PECAM, a specific marker for endothelial cells, flow cytometry was used to quantitate the inhibition of adherence of A375 melanoma cells to HUVECs. Compared to control (TNF treated, no oligonucleotide), ISIS 107248 (10 μM) inhibited A375 melanoma cell adherence to HUVEC by approximately 85%. An antibody to integrin α4 inhibited adherence by approximately 72%. Melanoma cells represent a clinically relevant model because a statistically significant correlation has been shown between increased expression of VLA-4 expression(of which integrin α4 is one member) and time to progression and overall survival time of patients with melanoma. Schadendorf et al., J. Natl. Cancer Inst., 1995, 87, 366-371.

In the next data set the test system is human integrin α4. The experiment in a line: Integrin α4 protein expression in A375 cells after electroporation of oligonucleotide (flow cytometry). Type of data set: cell-based. How it is done:
A375 cells were treated with ISIS 107245, 107248, 107252, 107255 and 107259 by electroporation at 175 volts, r=1, c=1000, 0.2 ml Opti-MEM, 1×10^6 cells /ml, 2 mm gap electrode using a BTX Electro Cell Manipulator 600 (Genetronics, San Diego Calif.). Oligonucleotide concentrations were 1, 3, 10 and 30 μM. Cells were harvested 24 hours after oligonucleotide treatment and strained with 2 ug/ml CD49d-FITC for flow cytometry as in the previous examples.
ISIS 107248 was compared directly to ISIS 27104 for ability to inhibit integrin α4 expression in A375 melanoma cells. Oligonucleotides were electroporated into cells as in the previous example.
In general terms: A flow cytometer gives signals particle by particle.

[5] abbreviates: Table 23, mice with arthritis, 10 mg/kg.

In the case of “17044 (CCGCAGCCATGCGCTCTTGG; phosphorothioate, 2'-MOE/deoxy, further chemistry not given here) [compound 17044]”, in data set [1] (Table 22, 10 mg/kg daily IP), the “# Paws/Mouse (mean number of affected paws at termination)” value came out at 0.7 ± 0.4, the “Mean Day of Onset” value was 20.3 ± 1.9 days, the “Peak Day of Inflamm. (day from onset to time of maximum swelling)” value came out at 1.6 ± 0.8 days and the “Severity (total clinical score/total number of mice in group)” value is 2.1 ± 1.1. Further, in data set [1] (setting [5]), the “Mean # of Paws Involved” value is listed as 2.3 ± 0.3 and the “Mean Clinical Score” value came to 7.0 ± 1.0. In data set [1] (preliminary study, single 10 mg/kg daily dose, reduced from 70), the Arthritis incidence is on record as 30%. Further, the “leukocyte trafficking into the spinal cords and brains” value in data set [2] (1 mg/kg) is “reduce leukocyte trafficking into the spinal cords and brains”. The “reduction of leukocyte influx into the central nervous system, 1.0 vs 0.1 mg/kg” value in data set [2] (EAE experiment 4) is reported as “dose-dependent effect with 1.0 mg/kg of 17044 causing a greater reduction of leukocyte influx into the central nervous system than did 0.1 mg/kg 17044”. Further, the “CD4+T cells in the central nervous system” value in data set [2] (one experiment, EAE mice) is listed as “virtually eliminated”. The “leukocyte trafficking as measured by expression of VLA-4, CD4, BM-8 and CD18” value in data set [2] (preliminary experiments, 1 mg/kg) is reported as “significantly reduced”.
On to “107248 (antisense CTGAGTCTGTTTTCCATTCT; chemistry not given here) [compound 107248]”, for which the “adherence of Jurkat cells to HUVEC” value is on record as 0% in data set [3] (1 μM), 12% in data set [3] (3 μM), 32% in data set [3] (10 μM) and 63% in data set [3] (30 μM). Also, the “inhibition of A375 melanoma cell adherence to HUVEC” value in data set [4] is reported as “approximately 85%”. Moreover, the “% Control” value stood at 9.1% with human integrin α4 (Table 25, 1 nM as printed, 24 hours); 23.2% with human integrin α4 (Table 25, 10 nM, 24 hours); 52.1% with human integrin α4 (Table 25, 30 nM, 24 hours); 52.1% with human integrin α4 (Table 26, 1 μM); 17.4% in the data set on human integrin α4 (Table 26, 3 μM); 7.9% with human integrin α4 (Table 26, 10 μM). The “% Control” value with human integrin α4 (Table 26, 30 μM) worked out at 2.9%. Besides, the “% Inhib.” value with human integrin α4 (Table 26, 1 μM) is reported as 47.9%; in the data set with human integrin α4 (Table 26, 3 μM), 82.6%; in the data set on human integrin α4 (Table 26, 10 μM) it was 92.1%; in the data set on human integrin α4 (Table 26, 30 μM), 97.1%.
